Source: patent publication US12325697B2 (Nimbus Clio, Inc., priority 2021, dated 2025)

molecular target: Recombinant human Cbl-b (aa 36-427) (Homo sapiens (Human), UniProt Q13191); test: Cbl-b Biochemical Assay (TR-FRET); conditions: read-out: TR-FRET hCbl-b IC50
Summary of the method: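 Two-step TR-FRET: 6 nM biotinylated Cbl-b preincubated 30-60 min with compound, then 60 min at RT with 1-2.5 nM Src-Zap70 and 0.5 mM ATP in HEPES pH 7.0 buffer, 1% DMSO. Stopped with 5 mM EDTA plus 100 nM UBE2D2-Ub-FL-BODIPY and 1 nM streptavidin-Tb, 60 min; 520 nm signal; IC50 from 4-parameter fit.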

Recombinant human Cbl-b (aa 36-427), sequence (Q13191 36-427): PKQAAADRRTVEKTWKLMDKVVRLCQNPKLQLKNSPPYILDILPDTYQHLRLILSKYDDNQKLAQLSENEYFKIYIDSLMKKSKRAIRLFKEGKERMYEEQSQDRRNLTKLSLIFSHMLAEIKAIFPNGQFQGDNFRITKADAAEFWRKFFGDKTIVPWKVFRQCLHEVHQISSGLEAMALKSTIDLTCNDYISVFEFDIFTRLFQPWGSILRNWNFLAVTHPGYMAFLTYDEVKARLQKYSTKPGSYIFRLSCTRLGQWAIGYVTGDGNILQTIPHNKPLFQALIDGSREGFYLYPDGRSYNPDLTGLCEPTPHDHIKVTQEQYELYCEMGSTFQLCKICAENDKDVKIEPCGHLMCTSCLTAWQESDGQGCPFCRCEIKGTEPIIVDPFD

Row | SMILES | IC50
1 | CCNc1cc(-c2ccc(Cl)cc2-c2nncn2C)cc(N2Cc3c(cccc3C(F)(F)F)C2=O)n1 [ACR-7, 2-(4-(4-Chloro-2-(4-methyl-4H-1,2,4-triazol-3-yl)phenyl)-6-(ethylamino)pyridin-2-yl)-4-(trifluoromethyl)isoindolin-1-one] | ≤ 200 nM
2 | Cn1cnnc1-c1ccccc1-c1cccc(N2Cc3c(cc(CN4CC[C@@H](F)C4)cc3C(F)(F)F)C2=O)c1 [Example Y-2, (R)-6-((3-Fluoropyrrolidin-1-yl)methyl)-2-(2′-(4-methyl-4H-1,2,4-triazol-3-yl)-[1,1′-biphenyl]-3-yl)-4-(trifluoromethyl)isoindolin-1-one] | 200 to 1000 nM
3 | CCNc1cc(-c2ccccc2-c2nncn2C)cc(N2Cc3c(cc(CN4CCOCC4)cc3C(F)(F)F)C2=O)n1 [AM-2, 2-(6-(Ethylamino)-4-(2-(4-methyl-4H-1,2,4-triazol-3-yl)phenyl)pyridin-2-yl)-6-(morpholinomethyl)-4-(trifluoromethyl)isoindolin-1-one] | ≤ 200 nM
4 | CCOc1cc(-c2c(-c3nncn3C)cnn2C)cc(N2Cc3c(cccc3C(F)(F)F)C2=O)n1 [ABH-2, 2-(6-Ethoxy-4-(1-methyl-4-(4-methyl-4H-1,2,4-triazol-3-yl)-1H-pyrazol-5-yl)pyridin-2-yl)-4-(trifluoromethyl)isoindolin-1-one] | 200 to 1000 nM
5 | C[C@@H]1CN(Cc2cc3c(c(C(F)(F)F)c2)CN(c2cccc(-c4ccccc4-c4nncn4C)c2)C3=O)CCO1 [Example X-2, (R)-2-(2′-(4-Methyl-4H-1,2,4-triazol-3-yl)-[1,1′-biphenyl]-3-yl)-6-((2-methylmorpholino)methyl)-4-(trifluoromethyl)isoindolin-1-one] | ≤ 200 nM
6 | CCNc1cc(-c2c(-c3nncn3C)cnn2C)cc(N2Cc3c(cc(OC4CN(C)C4)cc3C(F)(F)F)C2=O)n1 [ACV-2, 2-(6-(Ethylamino)-4-(1-methyl-4-(4-methyl-4H-1,2,4-triazol-3-yl)-1H-pyrazol-5-yl)pyridin-2-yl)-6-((1-methylazetidin-3-yl)oxy)-4-(trifluoromethyl)isoindolin-1-one] | ≤ 200 nM
7 | Cn1cnnc1-c1ccccc1-c1cccc(N2Cc3c(cccc3C(F)(F)F)C2=O)c1 [AAK-2, 2-(2′-(4-Methyl-4H-1,2,4-triazol-3-yl)-[1,1′-biphenyl]-3-yl)-4-(trifluoromethyl)isoindolin-1-one] | 200 to 1000 nM
8 | CCNc1cc(-c2c(-c3nncn3C)cnn2C)cc(N2Cc3c(cc(CN4CC(F)C4)cc3C(F)(F)F)C2=O)n1 [ABN-2, 2-(6-(Ethylamino)-4-(1-methyl-4-(4-methyl-4H-1,2,4-triazol-3-yl)-1H-pyrazol-5-yl)pyridin-2-yl)-6-((3-fluoroazetidin-1-yl)methyl)-4-(trifluoromethyl)isoindolin-1-one] | ≤ 200 nM
9 | Cn1cnnc1-c1ccccc1-c1cc(N2CCCC2)nc(N2Cc3c(cccc3C(F)(F)F)C2=O)c1 [AC-3] | 1000 to 10000 nM
10 | CCNc1cc(-c2c(-c3nncn3C)cnn2C)cc(N2Cc3c(cc(CN4CC[C@@H](F)C4)cc3C(F)(F)F)C2=O)n1 [ACA-1, (R)-2-(6-(Ethylamino)-4-(1-methyl-4-(4-methyl-4H-1,2,4-triazol-3-yl)-1H-pyrazol-5-yl)pyridin-2-yl)-6-((3-fluoropyrrolidin-1-yl)methyl)-4-(trifluoromethyl)isoindolin-1-one] | ≤ 200 nM
11 | CCNc1cc(-c2c(-c3nncn3C)cnn2C)cc(N2Cc3c(cc(CNCCO)cc3C(F)(F)F)C2=O)n1 [ACI-1, 2-(6-(Ethylamino)-4-(1-methyl-4-(4-methyl-4H-1,2,4-triazol-3-yl)-1H-pyrazol-5-yl)pyridin-2-yl)-6-(((2-hydroxyethyl)amino)methyl)-4-(trifluoromethyl)isoindolin-1-one] | ≤ 200 nM
12 | Cn1ncnc1-c1ccccc1-c1cccc(N2Cc3c(cccc3C(F)(F)F)C2=O)c1 [AAX-2, 2-(2′-(1-Methyl-1H-1,2,4-triazol-5-yl)-[1,1′-biphenyl]-3-yl)-4-(trifluoromethyl)isoindolin-1-one] | 10000 to 50000 nM
13 | Cn1cnnc1-c1ccccc1-c1cccc(N2Cc3c(cc(CN4CCC5(CC5)C4)cc3C(F)(F)F)C2=O)c1 [AAQ-1, 6-((5-Azaspiro [2.4]heptan-5-yl)methyl)-2-(2′-(4-methyl-4H-1,2,4-triazol-3-yl)-[1,1′-biphenyl]-3-yl)-4-(trifluoromethyl)isoindolin-1-one] | ≤ 200 nM
14 | CNC(=O)c1cc(-c2ccccc2-c2nncn2C)cc(N2Cc3c(cccc3C(F)(F)F)C2=O)c1 [Example O-3, N-Methyl-2′-(4-methyl-4H-1,2,4-triazol-3-yl)-5-(1-oxo-4-(trifluoromethyl)isoindolin-2-yl)-[1,1′-biphenyl]-3-carboxamide] | 10000 to 50000 nM
15 | CN(C)c1cc(-c2ccccc2-c2nncn2C)cc(N2Cc3c(cc(CO)cc3C(F)(F)F)C2=O)n1 [AD-4, 2-(6-(dimethylamino)-4-(2-(4-methyl-4H-1,2,4-triazol-3-yl)phenyl)pyridin-2-yl)-6-(hydroxymethyl)-4-(trifluoromethyl)isoindolin-1-one] | 200 to 1000 nM
16 | CCNc1cc(-c2c(-c3nncn3C)cnn2C)cc(N2Cc3c(cc(CN4CC[C@H](F)C4)cc3C(F)(F)F)C2=O)n1 [ACB-1, (S)-2-(6-(Ethylamino)-4-(1-methyl-4-(4-methyl-4H-1,2,4-triazol-3-yl)-1H-pyrazol-5-yl)pyridin-2-yl)-6-((3-fluoropyrrolidin-1-yl)methyl)-4-(trifluoromethyl)isoindolin-1-one] | ≤ 200 nM
17 | O=C1c2cccc(C(F)(F)F)c2CN1c1cccc(-c2ccccc2-c2nnco2)c1 [ABA-4, 2-(2′-(1,3,4-Oxadiazol-2-yl)-[1,1′-biphenyl]-3-yl)-4-(trifluoromethyl)isoindolin-1-one] | 10000 to 50000 nM
18 | Cn1cnnc1-c1cnn(C)c1-c1cccc(N2Cc3c(cc(CN4CCC5(CC5)C4)cc3C(F)(F)F)C2=O)c1 [AAD-1, 6-((5-Azaspiro [2.4]heptan-5-yl)methyl)-2-(3-(1-methyl-4-(4-methyl-4H-1,2,4-triazol-3-yl)-1H-pyrazol-5-yl)phenyl)-4-(trifluoromethyl)isoindolin-1-one] | ≤ 200 nM
19 | Cn1cnnc1-c1ccccc1-c1cc(C2CC2)nc(N2Cc3c(cc(CN4CCC5(CC5)C4)cc3C(F)(F)F)C2=O)c1 [ACL-1, 6-((5-Azaspiro [2.4]heptan-5-yl)methyl)-2-(6-cyclopropyl-4-(2-(4-methyl-4H-1,2,4-triazol-3-yl)phenyl)pyridin-2-yl)-4-(trifluoromethyl)isoindolin-1-one] | ≤ 200 nM
20 | CCNc1cc(-c2ccccc2-c2nncn2C)cc(N2Cc3c(cc(CO)cc3C(F)(F)F)C2=O)n1 [AD-3, 2-(6-(Ethylamino)-4-(2-(4-methyl-4H-1,2,4-triazol-3-yl)phenyl)pyridin-2-yl)-6-(hydroxymethyl)-4-(trifluoromethyl)isoindolin-1-one] | ≤ 200 nM
21 | Cn1cnnc1-c1ccccc1-c1cccc(N2Cc3c(cc(CO)cc3C(F)(F)F)C2=O)c1 [Example P-2, 6-(Hydroxymethyl)-2-(2′-(4-methyl-4H-1,2,4-triazol-3-yl)-[1,1′-biphenyl]-3-yl)-4-(trifluoromethyl)isoindolin-1-one] | 200 to 1000 nM
22 | Cn1c(O)nnc1-c1cnccc1-c1cccc(N2Cc3c(cccc3C(F)(F)F)C2=O)c1 [AAS-6, 2-(3-(3-(5-Hydroxy-4-methyl-4H-1,2,4-triazol-3-yl)pyridin-4-yl)phenyl)-4-(trifluoromethyl)isoindolin-1-one] | 10000 to 50000 nM
23 | CCNc1cc(-c2c(-c3nncn3C)cnn2C)cc(N2Cc3c(cc(C(=O)N4CC[C@@H](O)C4)cc3C(F)(F)F)C2=O)n1 [ACT-2, (R)-2-(6-(Ethylamino)-4-(1-methyl-4-(4-methyl-4H-1,2,4-triazol-3-yl)-1H-pyrazol-5-yl)pyridin-2-yl)-6-(3-hydroxypyrrolidine-1-carbonyl)-4-(trifluoromethyl)isoindolin-1-one] | ≤ 200 nM
24 | C[C@H]1CCCN(Cc2cc3c(c(C(F)(F)F)c2)CN(c2cccc(-c4ccccc4-c4nncn4C)c2)C3=O)C1 [Example R-2, (S)-2-(2′-(4-Methyl-4H-1,2,4-triazol-3-yl)-[1,1′-biphenyl]-3-yl)-6-((3-methylpiperidin-1-yl)methyl)-4-(trifluoromethyl)isoindolin-1-one] | ≤ 200 nM
25 | Cn1cnnc1-c1ccccc1-c1cc(C2CC2)nc(N2Cc3c(cc(CO)cc3C(F)(F)F)C2=O)c1 [ACK-3, 2-(6-Cyclopropyl-4-(2-(4-methyl-4H-1,2,4-triazol-3-yl)phenyl)pyridin-2-yl)-6-(hydroxymethyl)-4-(trifluoromethyl)isoindolin-1-one] | ≤ 200 nM
26 | Cn1cnnc1-c1ccc(Br)cc1-c1cccc(N2Cc3c(cccc3C(F)(F)F)C2=O)c1 [AAJ-9, 2-(5′-Bromo-2′-(4-methyl-4H-1,2,4-triazol-3-yl)-[1,1′-biphenyl]-3-yl)-4-(trifluoromethyl)isoindolin-1-one] | 1000 to 10000 nM
27 | Cn1cnnc1-c1ccccc1-c1cccc(N2Cc3c(cc(CN[C@H]4CCC[C@H]4O)cc3C(F)(F)F)C2=O)c1 [AA-2, 6-((((1S,2R)-2-Hydroxycyclopentyl)amino)methyl)-2-(2′-(4-methyl-4H-1,2,4-triazol-3-yl)-[1,1′-biphenyl]-3-yl)-4-(trifluoromethyl)isoindolin-1-one] | ≤ 200 nM
28 | CCNc1cc(-c2ccccc2-c2nncn2C)cc(N2Cc3c(cc(CN[C@H]4CCC[C@@H]4O)cc3C(F)(F)F)C2=O)n1 [AP-1, 2-(6-(Ethylamino)-4-(2-(4-methyl-4H-1,2,4-triazol-3-yl)phenyl)pyridin-2-yl)-6-((((1S,2S)-2-hydroxycyclopentyl)amino)methyl)-4-(trifluoromethyl)isoindolin-1-one] | ≤ 200 nM
29 | Cn1cnnc1-c1nccn1-c1cccc(N2Cc3c(cccc3C(F)(F)F)C2=O)c1 [AAA-8, 2-[3-[2-(4-Methyl-1,2,4-triazol-3-yl)imidazol-1-yl]phenyl]-4-(trifluoromethyl)-3H-isoindol-1-one] | 10000 to 50000 nM
30 | COc1ccc(-c2ccccc2-c2nncn2C)cc1N1Cc2c(cccc2C(F)(F)F)C1=O [Example G-4, 2-(4-Methoxy-2′-(4-methyl-4H-1,2,4-triazol-3-yl)-[1,1′-biphenyl]-3-yl)-4-(trifluoromethyl)isoindolin-1-one] | 10000 to 50000 nM
